{
  "source": "paper PMC4118284",
  "about": "(Leukemia, 2012)",
  "key": {"[1]": {"system": "newly diagnosed patients with FLT3-mutant AML", "details": "sorafenib plus induction chemotherapy; 15 newly diagnosed patients with FLT3-mutant AML; cited from earlier work"}, "[2]": {"system": "newly diagnosed patients with acute myeloid leukemia (AML)", "assay": "Phase 1b trial: efficacy", "type": "in vivo, human"}, "[3]": {"system": "newly diagnosed patients with acute myeloid leukemia (AML)", "details": "50 mg twice daily; either arm"}, "[4]": {"system": "patients with FLT3-mutant and FLT3-wild-type AML", "details": "single agent, cited from earlier work; for Patients with ≥ 50% peripheral blood blast reduction: 75 mg three times daily or 50 mg or 100 mg twice daily"}, "[5]": {"assay": "Plasma concentrations of midostaurin and metabolites", "details": "for Plasma concentration, Max / Plasma concentration, Median / Plasma concentration, Min: 50 mg BID"}, "[6]": {"details": "Concomitant (days 1-7 and 15-21), Induction cycle 1, day 1"}, "[7]": {"details": "Concomitant, First consolidation cycle, day 1.5"}, "[8]": {"details": "Concomitant, First consolidation cycle, day 15.5"}, "[9]": {"details": "Concomitant, First consolidation cycle, day 29.5"}, "[10]": {"details": "Concomitant, Induction cycle 1, Day 1 (+ 2 h)"}, "[11]": {"details": "Concomitant, Induction cycle 1, Day 1 (+ 4 h)"}, "[12]": {"details": "Concomitant, Induction cycle 1, day 2"}, "[13]": {"details": "Concomitant, Induction cycle 1, day 4"}, "[14]": {"details": "Concomitant, Induction cycle 1, day 15 (+ 2 h)"}, "[15]": {"details": "Concomitant, Induction cycle 1, day 15 (+ 4 h)"}, "[16]": {"details": "Sequential (days 8-21), Induction cycle 1, day 8"}, "[17]": {"details": "Sequential, First consolidation cycle, day 1.5"}, "[18]": {"details": "Sequential, First consolidation cycle, day 15.5"}, "[19]": {"details": "Sequential, First consolidation cycle, day 29.5"}, "[20]": {"details": "Sequential, Induction cycle 1, day 8 (+ 2 h)"}, "[21]": {"details": "Sequential, Induction cycle 1, day 8 (+ 4 h)"}, "[22]": {"details": "Sequential, Induction cycle 1, day 9"}, "[23]": {"details": "Sequential, Induction cycle 1, day 15"}, "[24]": {"details": "Sequential, Induction cycle 1, day 22.5"}, "[25]": {"details": "Sequential, Induction cycle 1, day 29.5"}},
  "note": "Like-named read-outs stand apart in the source and are kept apart here.",
  "data": [
    {"smiles": "CNC(=O)c1cc(Oc2ccc(NC(=O)Nc3ccc(Cl)c(C(F)(F)F)c3)cc2)ccn1", "note": "[Sorafenib]", "values": [
      {"measurement": "CR rate", "setting": "[1]", "result": 93, "unit": "%"}
    ]},
    {"smiles": "CO[C@@H]1[C@H](N(C)C(=O)c2ccccc2)C[C@H]2O[C@]1(C)n1c3ccccc3c3c4c(c5c6ccccc6n2c5c31)C(=O)NC4", "note": "[midostaurin, Midostaurin]", "values": [
      {"measurement": "Kaplan-Meier OS probability", "setting": "[2]; 50 mg twice daily, FLT3-mutant AML, 1 year", "result": 0.85},
      {"measurement": "Kaplan-Meier OS probability", "setting": "[2]; 50 mg twice daily, FLT3-mutant AML, 2 years", "result": 0.62},
      {"measurement": "Complete remission (CR) rate", "setting": "[2]; 50 mg twice daily, FLT3-mutant, 12 of 13 patients", "result": 92, "unit": "%"},
      {"measurement": "Kaplan-Meier OS probability", "setting": "[2]; 50 mg twice daily, FLT3-wild-type AML, 1 year", "result": 0.78},
      {"measurement": "Kaplan-Meier OS probability", "setting": "[2]; 50 mg twice daily, FLT3-wild-type AML, 2 years", "result": 0.52},
      {"measurement": "Complete remission (CR) rate", "setting": "[2]; 50 mg twice daily, FLT3-wild-type, 20 of 27 patients", "result": 74, "unit": "%"},
      {"measurement": "Complete remission (CR) rate", "setting": "[2]; 50 mg twice daily, concomitant group, 16 of 20 patients", "result": 80, "unit": "%"},
      {"measurement": "Patients who have died", "setting": "[2]; 50 mg twice daily, of four patients with TKD mutations", "result": "none"},
      {"measurement": "Complete remission (CR) rate", "setting": "[2]; 50 mg twice daily, sequential group, 16 of 20 patients", "result": 80, "unit": "%"},
      {"measurement": "Complete remission rate", "setting": "[2]; 100 mg twice daily (dose schedules I and II), 13 of 29 patients", "result": 45, "unit": "%"},
      {"measurement": "Patients surviving more than 4 years", "setting": "[2]; 100 mg twice daily, FLT3-mutant blasts, two patients", "result": 33, "unit": "%"},
      {"measurement": "Complete remission rate", "setting": "[2]; 100 mg twice daily, FLT3-wild-type blasts, 8 of 23", "result": 35, "unit": "%"},
      {"measurement": "Patients surviving more than 4 years", "setting": "[2]; 100 mg twice daily, FLT3-wild-type blasts, nine patients", "result": 39, "unit": "%"},
      {"measurement": "Deaths on treatment or within 28 days of the last dose of study drug", "setting": "[3]", "result": "No deaths"},
      {"measurement": "Patients with ≥ 50% peripheral blood blast reduction", "setting": "[4]; FLT3-mutant (n = 55)", "result": 70, "unit": "%"},
      {"measurement": "Patients with ≥ 50% peripheral blood blast reduction", "setting": "[4]; FLT3-wild-type (n = 60)", "result": 42, "unit": "%"},
      {"measurement": "Complete remissions (CRs)", "setting": "[4]", "result": "not observed"},
      {"measurement": "Plasma concentration, Max", "setting": "[5]; [6]", "result": "LLOQ"},
      {"measurement": "Plasma concentration, Median", "setting": "[5]; [6]", "result": "LLOQ"},
      {"measurement": "Plasma concentration, Min", "setting": "[5]; [6]", "result": "LLOQ"},
      {"measurement": "Plasma concentration, Max", "setting": "[5]; [7]", "result": "LLOQ"},
      {"measurement": "Plasma concentration, Median", "setting": "[5]; [7]", "result": "LLOQ"},
      {"measurement": "Plasma concentration, Min", "setting": "[5]; [7]", "result": "LLOQ"},
      {"measurement": "Plasma concentration, Max", "setting": "[5]; [8]", "result": 1040, "unit": "ng/mL"},
      {"measurement": "Plasma concentration, Min", "setting": "[5]; [8]", "result": "LLOQ"},
      {"measurement": "Plasma concentration, Max", "setting": "[5]; [9]", "result": 83.8, "unit": "ng/mL"},
      {"measurement": "Plasma concentration, Median", "setting": "[5]; [9]", "result": "LLOQ"},
      {"measurement": "Plasma concentration, Min", "setting": "[5]; [9]", "result": "LLOQ"},
      {"measurement": "Plasma concentration, Max", "setting": "[5]; [10]", "result": 2300, "unit": "ng/mL"},
      {"measurement": "Plasma concentration, Median", "setting": "[5]; [10]", "result": 1170, "unit": "ng/mL"},
      {"measurement": "Plasma concentration, Min", "setting": "[5]; [10]", "result": 355, "unit": "ng/mL"},
      {"measurement": "Plasma concentration, Max", "setting": "[5]; [11]", "result": 3380, "unit": "ng/mL"},
      {"measurement": "Plasma concentration, Median", "setting": "[5]; [11]", "result": 1010, "unit": "ng/mL"},
      {"measurement": "Plasma concentration, Min", "setting": "[5]; [11]", "result": 630, "unit": "ng/mL"},
      {"measurement": "Plasma concentration, Max", "setting": "[5]; [12]", "result": 4980, "unit": "ng/mL"},
      {"measurement": "Plasma concentration, Median", "setting": "[5]; [12]", "result": 1490, "unit": "ng/mL"},
      {"measurement": "Plasma concentration, Min", "setting": "[5]; [12]", "result": "LLOQ"},
      {"measurement": "Plasma concentration, Max", "setting": "[5]; [13]", "result": 8710, "unit": "ng/mL"},
      {"measurement": "Plasma concentration, Median", "setting": "[5]; [13]", "result": 2355, "unit": "ng/mL"},
      {"measurement": "Plasma concentration, Min", "setting": "[5]; [13]", "result": 1680, "unit": "ng/mL"},
      {"measurement": "Plasma concentration, Max", "setting": "[5]; [14]", "result": 7300, "unit": "ng/mL"},
      {"measurement": "Plasma concentration, Median", "setting": "[5]; [14]", "result": 1870, "unit": "ng/mL"},
      {"measurement": "Plasma concentration, Min", "setting": "[5]; [14]", "result": 87.1, "unit": "ng/mL"},
      {"measurement": "Plasma concentration, Max", "setting": "[5]; [15]", "result": 7120, "unit": "ng/mL"},
      {"measurement": "Plasma concentration, Median", "setting": "[5]; [15]", "result": 1420, "unit": "ng/mL"},
      {"measurement": "Plasma concentration, Min", "setting": "[5]; [15]", "result": 96.3, "unit": "ng/mL"},
      {"measurement": "Plasma concentration, Min", "setting": "[5]; Concomitant, Induction cycle 1, day 22.5", "result": "LLOQ"},
      {"measurement": "Plasma concentration, Min", "setting": "[5]; Concomitant, Induction cycle 1, day 29.5", "result": "LLOQ"},
      {"measurement": "Plasma concentration, Max", "setting": "[5]; [16]", "result": "LLOQ"},
      {"measurement": "Plasma concentration, Median", "setting": "[5]; [16]", "result": "LLOQ"},
      {"measurement": "Plasma concentration, Min", "setting": "[5]; [16]", "result": "LLOQ"},
      {"measurement": "Plasma concentration, Max", "setting": "[5]; [17]", "result": 91.2, "unit": "ng/mL"},
      {"measurement": "Plasma concentration, Median", "setting": "[5]; [17]", "result": "LLOQ"},
      {"measurement": "Plasma concentration, Min", "setting": "[5]; [17]", "result": "LLOQ"},
      {"measurement": "Plasma concentration, Max", "setting": "[5]; [18]", "result": 3790, "unit": "ng/mL"},
      {"measurement": "Plasma concentration, Median", "setting": "[5]; [18]", "result": 1330, "unit": "ng/mL"},
      {"measurement": "Plasma concentration, Min", "setting": "[5]; [18]", "result": 635, "unit": "ng/mL"},
      {"measurement": "Plasma concentration, Max", "setting": "[5]; [19]", "result": 4000, "unit": "ng/mL"},
      {"measurement": "Plasma concentration, Min", "setting": "[5]; [19]", "result": "LLOQ"},
      {"measurement": "Plasma concentration, Max", "setting": "[5]; [20]", "result": 2880, "unit": "ng/mL"},
      {"measurement": "Plasma concentration, Median", "setting": "[5]; [20]", "result": 1495, "unit": "ng/mL"},
      {"measurement": "Plasma concentration, Min", "setting": "[5]; [20]", "result": 460, "unit": "ng/mL"},
      {"measurement": "Plasma concentration, Max", "setting": "[5]; [21]", "result": 3660, "unit": "ng/mL"},
      {"measurement": "Plasma concentration, Median", "setting": "[5]; [21]", "result": 1585, "unit": "ng/mL"},
      {"measurement": "Plasma concentration, Min", "setting": "[5]; [21]", "result": 635, "unit": "ng/mL"},
      {"measurement": "Plasma concentration, Max", "setting": "[5]; [22]", "result": 3290, "unit": "ng/mL"},
      {"measurement": "Plasma concentration, Median", "setting": "[5]; [22]", "result": 1680, "unit": "ng/mL"},
      {"measurement": "Plasma concentration, Min", "setting": "[5]; [22]", "result": 922, "unit": "ng/mL"},
      {"measurement": "Plasma concentration, Max", "setting": "[5]; [23]", "result": 17100, "unit": "ng/mL"},
      {"measurement": "Plasma concentration, Median", "setting": "[5]; [23]", "result": 3660, "unit": "ng/mL"},
      {"measurement": "Plasma concentration, Min", "setting": "[5]; [23]", "result": 1290, "unit": "ng/mL"},
      {"measurement": "Plasma concentration, Max", "setting": "[5]; [24]", "result": 19200, "unit": "ng/mL"},
      {"measurement": "Plasma concentration, Median", "setting": "[5]; [24]", "result": 2755, "unit": "ng/mL"},
      {"measurement": "Plasma concentration, Min", "setting": "[5]; [24]", "result": 904, "unit": "ng/mL"},
      {"measurement": "Plasma concentration, Max", "setting": "[5]; [25]", "result": 4970, "unit": "ng/mL"},
      {"measurement": "Plasma concentration, Median", "setting": "[5]; [25]", "result": 57.2, "unit": "ng/mL"},
      {"measurement": "Trough concentrations during off-treatment periods", "setting": "[5]; midostaurin 50 mg twice daily", "result": "low or undetectable levels"}
    ]}
  ]
}
